Test results from publication PMC3914891, “Pentacyclic Nitrofurans with In Vivo Efficacy and Activity against Nonreplicating Mycobacterium tuberculosis” (PLoS ONE, 2014).
Converted amounts (≈) assume the structure as drawn.

Key:
[1] = tested on: Escherichia coli (ATCC 700926); experiment: MIC, spectrum of activity: E.c.; assay type: cell-based; details: ATCC700926, read-out: Minimum Inhibitory Concentration, E.c.
[2] = tested on: Staphylococcus aureus (NRS70); experiment: MIC, spectrum of activity: MRSA; assay type: cell-based; details: read-out: Minimum Inhibitory Concentration, MRSA
[3] = physchem; details: pH 7.4, aqueous buffer
[4] = tested on: Streptococcus pyogenes (ATCC 700294); experiment: MIC, spectrum of activity: S.py; assay type: cell-based; details: ATCC700294, read-out: Minimum Inhibitory Concentration, S. Py.
[5] = rats; IV 10 mg/kg and oral 100 mg/kg
[6] = tested on: Stenotrophomonas maltophilia (ATCC 13637); experiment: MIC, spectrum of activity: S.m.; assay type: cell-based; details: ATCC13637, read-out: Minimum Inhibitory Concentration, S.m.
[7] = tested on: Bacillus anthracis sterne 34F2; experiment: microbe, parasite or virus in culture; assay type: cell-based; details: STERNE34F2, read-out: Minimum Inhibitory Concentration, B.a.
[8] = tested on: Staphylococcus aureus (ATCC 29213); experiment: MIC, spectrum of activity: S.a.; assay type: cell-based; details: ATCC29213, read-out: Minimum Inhibitory Concentration, S.a
[9] = tested on: Burkholderia cepacia (ATCC 25416); experiment: MIC, spectrum of activity: B.c.; assay type: cell-based; details: ATCC25416, read-out: Minimum Inhibitory Concentration, B.c.
[10] = tested on: E. coli K12 ∆tolC; assay type: cell-based; details: E. coli K12 ∆tolC (efflux pump deficient)
[11] = male, Sprague-Dawley, rat, in vivo
[12] = in vitro; details: mouse, plasma
[13] = tested on: Enterococcus faecalis (ATCC 33186); experiment: MIC, spectrum of activity: E.f.; assay type: cell-based; details: ATCC33186, read-out: Minimum Inhibitory Concentration, E.f.
[14] = in vitro; details: mouse, microsomes
[15] = tested on: Bacillus subtilis (ATCC 23857); experiment: MIC, spectrum of activity: B.s.; assay type: cell-based; details: ATCC23857, read-out: Minimum Inhibitory Concentration, B.s.
[16] = tested on: M. tuberculosis; experiment: MIC determination, microbroth dilution, M. tuberculosis; assay type: cell-based, Mycobacterium tuberculosis; details: Mycobacterium tuberculosis, 168 h; read-out: M. tb. MIC
[17] = In vitro cytotoxicity against Vero cells; details: African green monkey, Vero cells (kidney epithelial cells, ATCC CCL-81)
[18] = tested on: Vero cells; experiment: In vitro cytotoxicity against Vero cells
[19] = in vivo; details: male, Sprague-Dawley, rat
[20] = tested on: Streptococcus pneumoniae (R6); experiment: MIC, spectrum of activity: S.pn; assay type: cell-based; details: read-out: Minimum Inhibitory Concentration, S. Pn.
[21] = tested on: M. tuberculosis strain H37Rv; experiment: Checkerboard synergy assay; assay type: cell-based, Mycobacterium tuberculosis; details: for MIC: Mycobacterium tuberculosis, H37RV, 168 h, read-out: MIC Alone
[22] = tested on: M. tuberculosis H37Rv; experiment: Minimum bactericidal concentration determination; assay type: cell-based, Mycobacterium tuberculosis

SMILES | MIC [1] [µg/mL] | MIC [2] [µg/mL] | solubility [3] [µg/mL] | MIC [4] [µg/mL] | MIC [6] [µg/mL] | MIC [7] [µg/mL] | MIC [8] [µg/mL] | MIC [9] [µg/mL] | Minimum Inhibitory Concentration, E.c. ΔtolC [10] [µg/mL] | fraction unbound [12] | MIC [13] [µg/mL] | half-life [14] [min] | MIC [15] [µg/mL] | MIC [16] [ng/mL] | IC50 [17] [µg/mL] | Selective Index (Cytox/MIC) [18] | MIC [20] [µg/mL] | FICI with 9a [21] | MIC in presence of 9a [21] [µg/mL] | Type of Interaction [21] | other results
O=[N+]([O-])c1ccc(C2=NOC(c3ccc(N4CCC(Oc5ccc(OC(F)(F)F)cc5)CC4)c(F)c3)C2)o1 (stereo not drawn) [Compound 9c, 5-(3-Fluoro-4-(4-(4-(trifluoromethoxy)phenoxy)piperidin-1-yl)phenyl)-3-(5-nitrofuran-2-yl)-4,5-dihydroisoxazole] | > 200 | > 200 | 1.9 (≈ 3.55 µM) | 200 (≈ 374 µM) | > 200 | 12.5 (≈ 23.3 µM) | > 200 | > 200 | >200 | 0.024 | > 200 | 422 | 200 (≈ 374 µM) | 1 (≈ 0.00187 µM) | 21.4 (≈ 40 µM) | 21400 | > 200 |  |  |  | Toxicity by intravenous and oral dosing [5]: Central nervous system toxicity (seizures); fe (fraction excreted unchanged in urine) ([11]; iv, 10 mg/kg): 0.02 (0.00) %; Cmin,24 h ([11]; po, 100 mg/kg): 0.02 (0.02) mg/L; Vd ([19]; iv, 10 mg/kg): 1.69 L/kg; clearance ([19]; iv, 10 mg/kg): 6.83 mL/min/kg; half-life ([19]; iv, 10 mg/kg): 336 min; AUC(0-inf) ([19]; po, 100 mg/kg): 1610 ng·h/mL; Cmax ([19]; po, 100 mg/kg): 150 ng/mL; bioavailability ([19]; po, 100 mg/kg): 0.83%
CC[C@@H](CO)NCCN[C@@H](CC)CO [Ethambutol] |  |  |  |  |  |  |  |  |  |  |  |  |  |  |  |  |  | 0.75–1.00 | 0.8 | Indifference (key: Synergy: synergy (FICI ≤0.5); Indifference: indifference (FICI >0.5–4.0); Antagonism: antagonism (FICI >4.0)) | MIC [21]: 1.6 µg/mL
O=[N+]([O-])c1ccc(C2=NOC(c3ccc(N4CCC(Oc5ccc(F)cc5)CC4)c(F)c3)C2)o1 (stereo not drawn) [Compound 9f, 5-(3-Fluoro-4-(4-(4-fluorophenoxy)piperidin-1-yl)phenyl)-3-(5-nitrofuran-2-yl)-4,5-dihydroisoxazole] | > 200 | 12.5 (≈ 26.6 µM) | 0.8 (≈ 1.7 µM) | 50 (≈ 107 µM) | > 200 | > 200 | 3.13 (≈ 6.67 µM) | 12.5 (≈ 26.6 µM) | 12.5 | 0.002 | 6.3 (≈ 13.4 µM) | 104 | 25 (≈ 53.3 µM) | 12 (≈ 0.0256 µM) | 8 (≈ 17 µM) | 667 | 25 (≈ 53.3 µM) |  |  |  | 
[H]/N=C(/N)N[C@H]1[C@H](O)[C@@H](O)[C@H](O[C@@H]2O[C@@H](C)[C@](O)(C=O)[C@H]2O[C@@H]2O[C@@H](CO)[C@H](O)[C@@H](O)[C@@H]2NC)[C@@H](N/C(N)=N\[H])[C@@H]1O [Streptomycin] |  |  |  |  |  |  |  |  |  |  |  |  |  |  |  |  |  | 0.75 | 0.4 to 0.8 | Indifference (key: Synergy: synergy (FICI ≤0.5); Indifference: indifference (FICI >0.5–4.0); Antagonism: antagonism (FICI >4.0)) | MIC [21]: 1.6 µg/mL; Classification [22]: Cidal (key: Cidal: cidal (MBC/MIC ≤4); Static: static (MBC/MIC >4)); MBC [22]: 3.13–6.25; MBC/MIC [22]: ≤ 4
O=[N+]([O-])c1ccc(C2=NOC(c3ccc(N4CCC(Oc5ccc(F)cc5)CC4)nc3)C2)o1 (stereo not drawn) [Compound 9e, 5-(6-(4-(4-Fluorophenoxy)piperidin-1-yl)pyridin-3-yl)-3-(5-nitrofuran-2-yl)-4,5-dihydroisoxazole] | > 200 | 50 (≈ 111 µM) | 2.2 (≈ 4.86 µM) | > 200 | 6.3 (≈ 13.9 µM) | > 200 | > 200 | 50 (≈ 111 µM) | >200 | 0.002 | 50 (≈ 111 µM) | 116 | 50 (≈ 111 µM) | 2 (≈ 0.00442 µM) | 7.5 (≈ 16.6 µM) | 3750 | > 200 |  |  |  | 
CC(=O)NC[C@H]1CN(c2ccc(N3CCOCC3)c(F)c2)C(=O)O1 [Linezolid] |  |  |  |  |  |  |  |  |  |  |  |  |  |  |  |  |  | 1.00 | 0.8 | Indifference (key: Synergy: synergy (FICI ≤0.5); Indifference: indifference (FICI >0.5–4.0); Antagonism: antagonism (FICI >4.0)) | MIC [21]: 1.6 µg/mL
